The source of these data is the supplement of paper PMC10307832.

Holding throughout (assay): relative viability (nuclei count vs DMSO), 5 days (fraction); higher = more cells survive
Compound in test [1]: CN(C)C[C@@H]1CCn2cc(c3ccccc32)C2=C(C(=O)NC2=O)c2cn(c3ccccc23)CCO1 [Ruboxistaurin] + COc1cccc2cc(-c3nc([C@H]4CC[C@H](C(=O)O)CC4)n4ncnc(N)c34)[nH]c12 [OSI-027] (partner 0.5 µM)
Summed up:
(§1)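 Lung cancer cell lines in 1536-well plates were dosed by pin tool the day after seeding, either with one drug alone or with a fixed anchor-drug dose plus five library-drug doses (not always all listed) in √10 steps. After 5 days, cells were fixed and their nuclei stained in one step (final 0.05% Triton X-100, 1% formaldehyde, 1 ug/ml Hoechst), then counted on 4× images. Relative viability is the nuclei count in treated wells divided by that in vehicle wells. Values are medians of duplicate plates.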

Compound in test [2]: CN(C)C[C@@H]1CCn2cc(c3ccccc32)C2=C(C(=O)NC2=O)c2cn(c3ccccc23)CCO1 [Ruboxistaurin] + CC(C)C[C@H](NC(=O)[C@H](Cc1ccccc1)NC(=O)c1cnccn1)B(O)O [Bortezomib] (partner 0.002 µM)
Summed up:
as §1

Compound in test [3]: CN(C)C[C@@H]1CCn2cc(c3ccccc32)C2=C(C(=O)NC2=O)c2cn(c3ccccc23)CCO1 [Ruboxistaurin] + Cc1cc(Nc2cc(N3CCN(C)CC3)nc(Sc3ccc(NC(=O)C4CC4)cc3)n2)n[nH]1 [Tozasertib] (partner 0.1 µM)
Put shortly:
as §1

Compound in test [4]: CN(C)C[C@@H]1CCn2cc(c3ccccc32)C2=C(C(=O)NC2=O)c2cn(c3ccccc23)CCO1 [Ruboxistaurin] + CC(=O)c1c(C)c2cnc(Nc3ccc(N4CCNCC4)cn3)nc2n(C2CCCC2)c1=O [Palbociclib] (partner 0.5 µM)
Put shortly: as §1

Compound in test [5]: CN(C)C[C@@H]1CCn2cc(c3ccccc32)C2=C(C(=O)NC2=O)c2cn(c3ccccc23)CCO1 [Ruboxistaurin] + Nc1nc2[nH]cc(CCc3ccc(C(=O)N[C@@H](CCC(=O)O)C(=O)O)cc3)c2c(=O)[nH]1 [Pemetrexed] (partner 0.2 µM)
Summed up: as §1

Regarding NCI-H1915, the relative viability is 0.645 in test [1] (first compound 0.08 µM); 0.489 in test [1] (first compound 0.8 µM); 0.505 in test [1] (first compound 2.53 µM); 0.363 in test [1] (first compound 8 µM); 0.985 in test [2] (first compound 0.08 µM); 0.928 in test [2] (first compound 0.8 µM). In addition, the relative viability in test [2] (first compound 2.53 µM) is 0.985; in test [2] (first compound 8 µM) it was 0.896; in test [3] (first compound 0.08 µM), 0.456; in test [3] (first compound 0.8 µM), 0.397; in test [3] (first compound 2.53 µM) it was 0.396; in test [3] (first compound 8 µM), 0.375. Besides, the relative viability in test [4] (first compound 0.08 µM) worked out at 0.542; in test [4] (first compound 0.8 µM), 0.482; in test [4] (first compound 2.53 µM), 0.536; in test [4] (first compound 8 µM), 0.421; in test [5] (first compound 0.08 µM), 0.508; in test [5] (first compound 0.8 µM) it was 0.439. Also, the relative viability in test [5] (first compound 2.53 µM) was 0.443; in test [5] (first compound 8 µM), 0.426.

As to BEN, the relative viability in test [1] (first compound 0.08 µM) worked out at 0.347; in test [1] (first compound 0.8 µM), 0.31; in test [1] (first compound 2.53 µM) it was 0.262; in test [1] (first compound 8 µM), 0.286; in test [2] (first compound 0.08 µM), 0.903; in test [2] (first compound 0.8 µM), 0.78. For the same cell line, the relative viability in test [2] (first compound 2.53 µM) is 0.702; in test [2] (first compound 8 µM), 0.677; in test [3] (first compound 0.08 µM), 0.492; in test [3] (first compound 0.8 µM) it was 0.45; in test [3] (first compound 2.53 µM) it was 0.498; in test [3] (first compound 8 µM), 0.483. Besides, the relative viability was 0.415 in test [4] (first compound 0.08 µM); 0.453 in test [4] (first compound 0.8 µM); 0.522 in test [4] (first compound 2.53 µM); 0.495 in test [4] (first compound 8 µM); 0.801 in test [5] (first compound 0.08 µM); 0.695 in test [5] (first compound 0.8 µM). Further, the relative viability in test [5] (first compound 2.53 µM) is 0.716; in test [5] (first compound 8 µM), 0.528.

As for NCI-H2347, the relative viability in test [1] (first compound 0.08 µM) came out at 0.483; in test [1] (first compound 0.8 µM), 0.429; in test [1] (first compound 2.53 µM), 0.354; in test [1] (first compound 8 µM), 0.356; in test [2] (first compound 0.08 µM), 1.25; in test [2] (first compound 0.8 µM), 1.11. For the same cell line, the relative viability in test [2] (first compound 2.53 µM) amounted to 0.957; in test [2] (first compound 8 µM), 1.02; in test [3] (first compound 0.08 µM), 0.557; in test [3] (first compound 0.8 µM), 0.468; in test [3] (first compound 2.53 µM), 0.614; in test [3] (first compound 8 µM), 0.415. The relative viability in test [4] (first compound 0.08 µM) was 0.441; in test [4] (first compound 0.8 µM), 0.425; in test [4] (first compound 2.53 µM) it was 0.358; in test [4] (first compound 8 µM), 0.42; in test [5] (first compound 0.08 µM) it was 0.45; in test [5] (first compound 0.8 µM), 0.413. For the same cell line, the relative viability in test [5] (first compound 2.53 µM) was found to be 0.372; in test [5] (first compound 8 µM), 0.44.

Consider H3255, for which the relative viability in test [1] (first compound 0.08 µM) was determined as 0.686; in test [1] (first compound 0.8 µM), 0.501; in test [1] (first compound 2.53 µM), 0.633; in test [1] (first compound 8 µM), 0.577; in test [2] (first compound 0.08 µM), 0.854; in test [2] (first compound 0.8 µM), 0.844. The relative viability worked out at 0.869 in test [2] (first compound 2.53 µM); 0.732 in test [2] (first compound 8 µM); 0.658 in test [3] (first compound 0.08 µM); 0.603 in test [3] (first compound 0.8 µM); 0.714 in test [3] (first compound 2.53 µM); 0.836 in test [3] (first compound 8 µM). Also, the relative viability is 0.318 in test [4] (first compound 0.08 µM); 0.336 in test [4] (first compound 0.8 µM); 0.329 in test [4] (first compound 2.53 µM); 0.364 in test [4] (first compound 8 µM); 0.595 in test [5] (first compound 0.08 µM); 0.556 in test [5] (first compound 0.8 µM). Besides, the relative viability was found to be 0.614 in test [5] (first compound 2.53 µM) and 0.534 in test [5] (first compound 8 µM).

In the case of NCI-H441, the relative viability in test [1] (first compound 0.08 µM) stood at 0.65; in test [1] (first compound 0.8 µM), 0.474; in test [1] (first compound 2.53 µM), 0.607; in test [1] (first compound 8 µM), 0.456; in test [2] (first compound 0.08 µM) it was 0.636; in test [2] (first compound 0.8 µM) it was 0.296. Further, the relative viability was 0.431 in test [2] (first compound 2.53 µM); 0.448 in test [2] (first compound 8 µM); 0.663 in test [3] (first compound 0.08 µM); 0.594 in test [3] (first compound 0.8 µM); 0.638 in test [3] (first compound 2.53 µM); 0.554 in test [3] (first compound 8 µM). Besides, the relative viability in test [4] (first compound 0.08 µM) turned out to be 0.234; in test [4] (first compound 0.8 µM), 0.174; in test [4] (first compound 2.53 µM), 0.248; in test [4] (first compound 8 µM), 0.202; in test [5] (first compound 0.08 µM), 0.254; in test [5] (first compound 0.8 µM) it was 0.307. The values for the relative viability in test [5] (first compound 2.53 µM) and in test [5] (first compound 8 µM) were 0.287 and 0.278, respectively.

For NCI-H2228, the relative viability in test [1] (first compound 0.08 µM) came out at 0.6; in test [1] (first compound 0.8 µM), 0.439; in test [1] (first compound 2.53 µM) it was 0.549; in test [1] (first compound 8 µM), 0.281; in test [2] (first compound 0.08 µM), 1.33; in test [2] (first compound 0.8 µM), 0.708. Further, the relative viability in test [2] (first compound 2.53 µM) was found to be 1.08; in test [2] (first compound 8 µM), 0.941; in test [3] (first compound 0.08 µM), 0.317; in test [3] (first compound 0.8 µM), 0.202; in test [3] (first compound 2.53 µM), 0.237; in test [3] (first compound 8 µM), 0.187. Also, the relative viability was 0.845 in test [4] (first compound 0.08 µM); 0.631 in test [4] (first compound 0.8 µM); 0.863 in test [4] (first compound 2.53 µM); 0.693 in test [4] (first compound 8 µM); 0.387 in test [5] (first compound 0.08 µM); 0.335 in test [5] (first compound 0.8 µM). The relative viability in test [5] (first compound 2.53 µM) came to 0.337; in test [5] (first compound 8 µM), 0.322.

Consider NCI-H1975, for which the relative viability in test [1] (first compound 0.08 µM) came out at 0.751; in test [1] (first compound 0.8 µM), 0.578; in test [1] (first compound 2.53 µM), 0.645; in test [1] (first compound 8 µM), 0.502; in test [2] (first compound 0.08 µM), 0.392; in test [2] (first compound 0.8 µM) it was 0.311. Besides, the relative viability in test [2] (first compound 2.53 µM) is 0.424; in test [2] (first compound 8 µM) it was 0.392; in test [3] (first compound 0.08 µM) it was 0.851; in test [3] (first compound 0.8 µM), 0.54; in test [3] (first compound 2.53 µM), 0.384; in test [3] (first compound 8 µM) it was 0.189. The relative viability is 0.648 in test [4] (first compound 0.08 µM); 0.512 in test [4] (first compound 0.8 µM); 0.637 in test [4] (first compound 2.53 µM); 0.605 in test [4] (first compound 8 µM); 0.328 in test [5] (first compound 0.08 µM); 0.276 in test [5] (first compound 0.8 µM). Also, the relative viability was 0.301 in test [5] (first compound 2.53 µM) and 0.286 in test [5] (first compound 8 µM).
